According to ChEMBL document CHEMBL5678818, “Discovery of potent SOS1 inhibitors that block RAS activation via disruption of the RAS-SOS1 interaction” (Proc Natl Acad Sci U S A, 2019):

Assays:
[1] = target: T1, Serine/threonine-protein kinase Chk1 (Homo sapiens) (UniProt O14757); experiment: Inhibition of CHEK1 (unknown origin) assessed as residual activity at 1000 nM by KINOMEscan analysis relative to control
T1 sequence (whole entry): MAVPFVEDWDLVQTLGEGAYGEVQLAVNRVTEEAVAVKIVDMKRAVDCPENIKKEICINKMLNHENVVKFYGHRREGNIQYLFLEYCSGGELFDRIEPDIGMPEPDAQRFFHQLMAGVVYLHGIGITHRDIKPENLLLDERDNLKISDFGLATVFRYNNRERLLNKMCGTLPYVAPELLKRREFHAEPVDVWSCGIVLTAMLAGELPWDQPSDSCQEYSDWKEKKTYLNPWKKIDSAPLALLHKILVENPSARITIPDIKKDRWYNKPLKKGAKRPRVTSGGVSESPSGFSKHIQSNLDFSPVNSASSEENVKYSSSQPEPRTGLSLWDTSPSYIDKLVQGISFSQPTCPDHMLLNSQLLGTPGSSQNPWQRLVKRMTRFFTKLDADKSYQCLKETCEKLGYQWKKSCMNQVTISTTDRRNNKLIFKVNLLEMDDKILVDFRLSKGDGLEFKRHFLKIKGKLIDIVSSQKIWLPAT

[2] = target: Receptor tyrosine-protein kinase erbB-4 (Homo sapiens) (UniProt Q15303); experiment: Inhibition of ERBB4 (unknown origin) assessed as residual activity at 1000 nM by KINOMEscan analysis relative to control
Receptor tyrosine-protein kinase erbB-4 (Homo sapiens), sequence (Q15303 whole entry): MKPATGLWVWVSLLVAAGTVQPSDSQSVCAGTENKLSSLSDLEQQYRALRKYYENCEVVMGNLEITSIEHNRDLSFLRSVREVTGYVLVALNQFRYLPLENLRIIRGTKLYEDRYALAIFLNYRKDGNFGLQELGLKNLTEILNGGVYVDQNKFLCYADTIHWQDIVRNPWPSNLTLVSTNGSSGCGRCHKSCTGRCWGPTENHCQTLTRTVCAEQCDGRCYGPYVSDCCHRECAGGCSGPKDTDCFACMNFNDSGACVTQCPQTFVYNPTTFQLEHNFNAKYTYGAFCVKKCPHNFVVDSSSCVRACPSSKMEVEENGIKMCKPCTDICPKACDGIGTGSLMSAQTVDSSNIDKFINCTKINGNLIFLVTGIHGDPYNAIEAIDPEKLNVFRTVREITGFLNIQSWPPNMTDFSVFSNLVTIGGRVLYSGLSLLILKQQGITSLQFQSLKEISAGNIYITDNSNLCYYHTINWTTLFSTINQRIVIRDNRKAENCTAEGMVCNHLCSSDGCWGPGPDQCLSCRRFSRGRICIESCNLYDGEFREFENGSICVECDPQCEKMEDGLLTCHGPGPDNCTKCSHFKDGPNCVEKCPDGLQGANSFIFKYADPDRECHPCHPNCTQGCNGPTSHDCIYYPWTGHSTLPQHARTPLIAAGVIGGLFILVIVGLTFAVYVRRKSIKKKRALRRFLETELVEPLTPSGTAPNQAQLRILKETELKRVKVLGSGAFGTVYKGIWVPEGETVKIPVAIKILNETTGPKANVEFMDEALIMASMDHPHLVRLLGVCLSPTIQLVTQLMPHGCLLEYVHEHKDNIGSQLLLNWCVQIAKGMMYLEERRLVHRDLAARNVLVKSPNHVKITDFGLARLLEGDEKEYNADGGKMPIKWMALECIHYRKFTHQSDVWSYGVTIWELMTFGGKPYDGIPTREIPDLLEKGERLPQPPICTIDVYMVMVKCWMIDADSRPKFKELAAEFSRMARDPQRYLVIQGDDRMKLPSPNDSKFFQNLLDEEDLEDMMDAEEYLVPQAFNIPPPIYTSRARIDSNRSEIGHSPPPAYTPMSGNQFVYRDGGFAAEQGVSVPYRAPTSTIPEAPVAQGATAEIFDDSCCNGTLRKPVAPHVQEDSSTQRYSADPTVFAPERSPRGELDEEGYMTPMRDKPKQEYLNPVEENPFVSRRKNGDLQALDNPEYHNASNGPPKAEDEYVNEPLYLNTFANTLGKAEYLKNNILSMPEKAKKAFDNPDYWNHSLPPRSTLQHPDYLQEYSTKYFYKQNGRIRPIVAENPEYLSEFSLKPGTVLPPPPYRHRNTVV

[3] = target: T2, Serine/threonine-protein kinase Nek5 (Homo sapiens) (UniProt Q6P3R8); experiment: Inhibition of NEK5 (unknown origin) assessed as residual activity at 1000 nM by KINOMEscan analysis relative to control
T2 sequence (whole entry): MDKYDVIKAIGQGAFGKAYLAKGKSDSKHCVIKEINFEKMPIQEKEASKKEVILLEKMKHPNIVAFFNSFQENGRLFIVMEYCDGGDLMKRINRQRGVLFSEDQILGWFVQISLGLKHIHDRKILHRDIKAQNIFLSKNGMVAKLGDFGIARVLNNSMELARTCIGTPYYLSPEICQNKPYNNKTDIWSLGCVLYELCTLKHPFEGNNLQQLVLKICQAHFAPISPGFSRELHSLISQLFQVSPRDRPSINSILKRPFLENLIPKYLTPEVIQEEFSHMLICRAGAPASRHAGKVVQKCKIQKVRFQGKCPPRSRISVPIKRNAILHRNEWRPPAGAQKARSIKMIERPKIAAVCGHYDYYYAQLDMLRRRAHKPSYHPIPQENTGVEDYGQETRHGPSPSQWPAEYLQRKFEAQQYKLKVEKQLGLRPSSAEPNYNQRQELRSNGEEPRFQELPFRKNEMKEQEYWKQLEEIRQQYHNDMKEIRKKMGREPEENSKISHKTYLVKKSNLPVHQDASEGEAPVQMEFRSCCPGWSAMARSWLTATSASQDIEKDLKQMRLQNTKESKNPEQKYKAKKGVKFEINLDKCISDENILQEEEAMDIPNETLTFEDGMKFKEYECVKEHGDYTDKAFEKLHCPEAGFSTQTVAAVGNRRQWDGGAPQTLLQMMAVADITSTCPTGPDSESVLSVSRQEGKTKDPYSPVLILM

[4] = target: Phosphatidylinositol 4-phosphate 5-kinase type-1 alpha (Homo sapiens) (UniProt Q99755); experiment: Inhibition of PIP5K1A (unknown origin) assessed as residual activity at 1000 nM by KINOMEscan analysis relative to control
Phosphatidylinositol 4-phosphate 5-kinase type-1 alpha (Homo sapiens), sequence (Q99755 whole entry): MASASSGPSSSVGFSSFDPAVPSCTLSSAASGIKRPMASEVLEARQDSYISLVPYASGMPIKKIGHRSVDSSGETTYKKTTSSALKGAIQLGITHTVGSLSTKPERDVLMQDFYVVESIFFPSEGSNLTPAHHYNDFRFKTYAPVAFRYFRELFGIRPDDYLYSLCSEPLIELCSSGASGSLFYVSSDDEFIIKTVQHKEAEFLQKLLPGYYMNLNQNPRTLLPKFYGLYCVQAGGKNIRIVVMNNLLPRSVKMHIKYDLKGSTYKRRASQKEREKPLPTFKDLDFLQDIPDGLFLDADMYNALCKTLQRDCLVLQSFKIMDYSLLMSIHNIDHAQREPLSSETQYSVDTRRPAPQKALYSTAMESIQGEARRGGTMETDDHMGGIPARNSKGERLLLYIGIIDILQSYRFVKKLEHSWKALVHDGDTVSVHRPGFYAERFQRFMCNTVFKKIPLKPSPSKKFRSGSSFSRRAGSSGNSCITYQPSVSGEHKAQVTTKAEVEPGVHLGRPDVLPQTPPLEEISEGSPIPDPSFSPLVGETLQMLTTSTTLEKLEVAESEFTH

[5] = target: cAMP-dependent protein kinase catalytic subunit beta (Homo sapiens) (UniProt P22694); experiment: Inhibition of PKAC-beta (unknown origin) assessed as residual activity at 1000 nM by KINOMEscan analysis relative to control
[6] = target: T3, Dual specificity protein kinase TTK (Homo sapiens) (UniProt P33981); experiment: Inhibition of TTK (unknown origin) assessed as residual activity at 1000 nM by KINOMEscan analysis relative to control
T3 sequence (whole entry): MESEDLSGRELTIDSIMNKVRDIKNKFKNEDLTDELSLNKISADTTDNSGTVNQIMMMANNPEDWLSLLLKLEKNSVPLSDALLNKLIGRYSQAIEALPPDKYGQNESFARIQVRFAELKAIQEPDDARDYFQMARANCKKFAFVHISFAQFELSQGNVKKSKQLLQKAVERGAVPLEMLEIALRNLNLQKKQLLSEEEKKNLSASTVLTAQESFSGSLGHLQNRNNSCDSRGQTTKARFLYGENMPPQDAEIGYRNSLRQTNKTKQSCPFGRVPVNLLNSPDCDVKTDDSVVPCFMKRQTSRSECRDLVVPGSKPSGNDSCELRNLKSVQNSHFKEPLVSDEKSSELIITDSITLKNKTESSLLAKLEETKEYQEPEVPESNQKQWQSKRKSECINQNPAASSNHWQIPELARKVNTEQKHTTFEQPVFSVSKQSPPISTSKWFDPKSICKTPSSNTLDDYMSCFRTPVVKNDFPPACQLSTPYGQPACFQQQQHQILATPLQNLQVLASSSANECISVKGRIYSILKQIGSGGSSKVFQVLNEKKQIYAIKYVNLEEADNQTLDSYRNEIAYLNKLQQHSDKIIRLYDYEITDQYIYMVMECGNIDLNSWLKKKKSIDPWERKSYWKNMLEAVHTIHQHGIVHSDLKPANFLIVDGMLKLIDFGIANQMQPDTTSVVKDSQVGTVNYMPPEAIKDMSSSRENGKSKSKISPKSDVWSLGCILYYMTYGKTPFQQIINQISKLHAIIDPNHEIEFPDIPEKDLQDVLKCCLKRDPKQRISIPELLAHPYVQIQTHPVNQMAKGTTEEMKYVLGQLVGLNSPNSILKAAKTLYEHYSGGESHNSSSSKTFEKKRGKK

Row | Structure (SMILES) | Activity [1] [%] | Activity [2] [%] | Activity [3] [%] | Activity [4] [%] | Activity [5] [%] | Activity [6] [%]
1 | COc1cc2nc(C)nc(N[C@H](C)c3cccc(-c4cn[nH]c4)c3)c2cc1OC | 98 | 89 | 90 | 93 | 73 | 78
2 | COc1cc2ncnc(N[C@H](C)c3cccc4ccccc34)c2cc1OC | 100 | 46 | 85 | 90 | 100 | 95
